Test results from patent publication US20200323793A1, “COMBINATION THERAPY COMPRISING A POLYUNSATURATED KETONE AND A CALCINEURIN INHIBITOR” (Avexxin AS, priority 2016, published 2020).

Experiments:
[1] = tested on: skin keratinocyte cell line HaCaT; assay: Resazurin assay, HaCaT cell viability, Example 2 (48 hours of treatment); type: cell-based, human; details: each alone, dose response over 48 hours
Protocol: (§1) The spontaneously immortalized, nontumorigenic skin keratinocyte cell line HaCaT was maintained in DMEM supplemented with 5% (v/v) FBS, 0.3 mg/ml glutamine and 0.1 mg/ml gentamicin at 37° C. with 5% CO2 in a humidified atmosphere. Subculture using trypsin-EDTA was performed every 3-4 days with split ratio of 1:3-1:4 to ensure actively proliferating cells.
Cells were seeded in 96 well plates in fully supplemented medium at a density of 3000 cells per well. Following 72 hour of cultivation, the cells were starved of serum in 0.25% FBS/DMEM overnight to halt proliferation, synchronize the cells and to increase cell sensitivity to treatment. Next day, the cells were treated with Compound A1 and calcineurin inhibitor Pimecrolimus for 48 hours. Resazurin was added according to the manufacturer's instruction (RnD Systems, UK) and left to incubate for […] in incubator at 37° C. with 5% CO2 in a humidified atmosphere before fluorescence was read at 544 nm excitation and 590 nm emission wavelength. The cells were observed under the microscope to evaluate possible morphology changes and signs of stress before addition of resazurin. The experiments were performed in series of 8 wells per treatment.

[2] = tested on: skin keratinocyte cell line HaCaT; assay: Resazurin assay, HaCaT proliferation and viability, Example 1 (24 hours of treatment); type: cell-based; details: Homo sapiens, 25 μM alone, read-out: reduction of proliferation and viability of HaCaT cells
Protocol: as §1
Cells were seeded in 96 well plates in fully supplemented medium at a density of 2500 cells per well. Following 72 hours of cultivation, the cells were starved of serum in 0.25% FBS/DMEM overnight to halt proliferation, synchronize and to increase cell sensitivity to treatment. On day 4, the cells were treated with cPLA2α inhibitor Compound A1 and immunomodulator Pimecrolimus (Karebay Biochem # Ki0907) and left to incubate for […] in incubator at 37° C. with 5% CO2 in a humidified atmosphere before fluorescence was read at 544 nm excitation and 590 nm emission wavelength. The cells were observed under the microscope to evaluate possible morphology changes and signs of stress before addition of resazurin. The experiments were performed in series of 8 wells per treatment and repeated 2-3 times.

CC[C@@H]1/C=C(\C)C[C@H](C)C[C@H](OC)[C@H]2O[C@@](O)(C(=O)C(=O)N3CCCC[C@H]3C(=O)O[C@H](/C(C)=C/[C@@H]3CC[C@H](Cl)[C@H](OC)C3)[C@H](C)[C@@H](O)CC1=O)[C@H](C)C[C@@H]2OC [Pimecrolimus]
activity against viability of the cells (dose response) [1]: active inhibitors | cytotoxicity at 25 µM [2]: ~15%
